# In patent US20220168403A1, “SUBCUTANEOUS TELOMERASE INHIBITOR COMPOSITIONS AND METHODS FOR USING SAME” (Geron Corporation, priority 2020, published 2022):
# What was measured:
# [1] = Bioavailability of imetelstat sodium in rats via subcutaneous and intravenous routes (plasma LC/MS/MS, noncompartmental PK); assay type: in vivo, Sprague-Dawley rats
# Protocol: 4 male, Sprague-Dawley rats (approximately 250 g-260 g) were dosed intravenously (IV volume 37.5 μL; 30 mg/kg) and 4 male, Sprague-Dawley rats (approximately 250 g-260 g) were dosed subcutaneously (SC volume 113 μL; 90 mg/kg) with imetelstat sodium. Imetelstat sodium is a 5′ palmitoylated 13-mer thiophosphoramidate oligonucleotide composed of the sequence 5′-TAGGGTTAGACAA-3′. Imetelstat sodium was dissolved in water immediately before dosing.
# Blood was collected from each of the rats at time points of 0.083 hours (˜5 minutes), 0.25 hours (15 minutes), 1 hour, 2 hours, 4 hours, 8 hours and at 24 hours. A volume of […] of whole blood was collected, yielding about 700 μL to 1000 μL of plasma. Blood was collected through a secondary catheter in IV dosed rats (different from the one used for IV dosing).
# Blood samples were collected in EDTA tubes and centrifuged immediately after collection. Collected plasma samples were transferred to a separate vial. Plasma concentration of imetelstat sodium was analyzed by LC/MS/MS.
# The plasma concentrations of imetelstat sodium that were analyzed over a 24 hour period are depicted in FIG. 1. The plasma concentrations of imetelstat sodium were analyzed by a noncompartmental PK analysis. The subcutaneous (s.c.) bioavailability was calculated based on the following equation: F=(AUC(s.c.)/Dose(s.c.))/(AUC(i.v.)/Dose(i.v.))×100%.
# [2] = Pre-study compatibility of imetelstat co-formulated with rHuPH20 (appearance, UV assay, water content, pH, RP-HPLC/UV); assay type: physicochemical
# Protocol: The following formulations were prepared
# [3] = system: template region of the RNA component of telomerase; details: background statement; cited from earlier work
# [4] = system: cancer cell lines and human tumors; details: U.S. Pat. No. 7,494,982, cited from earlier work
# [5] = system: patients with lower risk myelodysplastic syndrome; details: administered intravenously; cited from earlier work
# [6] = system: patients with myelofibrosis; details: administered intravenously, correlated with reduction of mutation burden and cytogenetic abnormalities; cited from earlier work
smiles,measurement,setting,value
"CCCCCCCCCCCCCCCC(=O)NCC(O)COP(=O)([S-])OC[C@H]1O[C@@H](n2cc(C)c(=O)[nH]c2=O)CC1NP(=O)([S-])OC[C@H]1O[C@@H](n2cnc3c(N)ncnc32)CC1NP(=O)([S-])OC[C@H]1O[C@@H](n2cnc3c(=O)[nH]c(N)nc32)CC1NP(=O)([S-])OC[C@H]1O[C@@H](n2cnc3c(=O)[nH]c(N)nc32)CC1NP(=O)([S-])OC[C@H]1O[C@@H](n2cnc3c(=O)[nH]c(N)nc32)CC1NP(=O)([S-])OC[C@H]1O[C@@H](n2cc(C)c(=O)[nH]c2=O)CC1NP(=O)([S-])OC[C@H]1O[C@@H](n2cc(C)c(=O)[nH]c2=O)CC1NP(=O)([S-])OC[C@H]1O[C@@H](n2cnc3c(N)ncnc32)CC1NP(=O)([S-])OC[C@H]1O[C@@H](n2cnc3c(=O)[nH]c(N)nc32)CC1NP(=O)([S-])OC[C@H]1O[C@@H](n2cnc3c(N)ncnc32)CC1NP(=O)([S-])OC[C@H]1O[C@@H](n2ccc(N)nc2=O)CC1NP(=O)([S-])OC[C@H]1O[C@@H](n2cnc3c(N)ncnc32)CC1NP(=O)([S-])OC[C@H]1O[C@@H](n2cnc3c(N)ncnc32)CC1N.[Na+].[Na+].[Na+].[Na+].[Na+].[Na+].[Na+].[Na+].[Na+].[Na+].[Na+].[Na+].[Na+] (stereo partly drawn) [imetelstat sodium, 5′ palmitoylated 13-mer thiophosphoramidate oligonucleotide composed of the sequence 5′-TAGGGTTAGACAA-3′]",calculated subcutaneous bioavailability (F),"[1]; SC 90 mg/kg vs IV 30 mg/kg, F=(AUC(s.c.)/Dose(s.c.))/(AUC(i.v.)/Dose(i.v.))×100%, 24 hour period",about 95.8%
same,calculated subcutaneous bioavailability (F),[1]; repeated experiment,about 81.5%
same,Individual Impurities by RP-HPLC/UV: Unlipidated species,[2]; RRT 0.42,0.26% Area
same,Individual Impurities by RP-HPLC/UV: Pre-Peak,[2]; RRT 0.98,0.35% Area
same,Individual Impurities by RP-HPLC/UV: Post-Peak 1,[2]; RRT 1.04,5.04% Area
same,Individual Impurities by RP-HPLC/UV: Post-Peak 2,[2]; RRT 1.08,0.53% Area
same,Individual Impurities by RP-HPLC/UV: Post-Peak 3,"[2]; RRT 1.12 (Imetelstat Only), 1.09 (co-formulations)",<0.2% Area
same,Assay by UV,[2]; pre-study,1033 µg/mg
same,Water Content,[2]; pre-study,4.2%
same,"pH (1 mL, Plastic)",[2]; pre-study,8.0
same,Purity by RP-HPLC/UV,[2]; pre-study compatibility,93.1%
same,Total Impurities by RP-HPLC/UV,[2]; pre-study compatibility,6.9%
same,Appearance of Reconstituted Solution,"[2]; pre-study, Imetelstat Only = most current stability data of the drug substance lot","Clear solution,"
same,binding to the template region of the RNA component of telomerase,[3],high affinity
same,telomerase activity inhibition,[4]; background,inhibits telomerase activity
same,effect on cell proliferation,[4]; multitude of different cancer cell lines and human tumors,effective against cell proliferation
same,transfusion independence,[5],able to achieve durable transfusion independence in certain patients
same,overall survival and bone marrow fibrosis,[6],able to achieve improvement in overall survival and bone marrow fibrosis
